{"source": "paper PMC4696656", "about": "“Insights into the Mechanism of Action of Bactericidal Lipophosphonoxins” (PLoS ONE, 2015)", "key": {"[1]": {"tested_on": "Clostridium perfringens CCM 4435", "experiment": "microbe, parasite or virus in culture", "format": "cell-based", "details": "CCM4435"}, "[2]": {"tested_on": "Bacteroides fragilis CCM 4712", "experiment": "MIC against anaerobic bacteria, tube dilution method", "format": "cell-based", "details": "CCM4712, anaerobic conditions, 35°C, 48 h (confirmed 72 h)"}, "[3]": {"tested_on": "Peptostreptococcus anaerobius", "experiment": "MIC against anaerobic bacteria, tube dilution method", "format": "cell-based", "details": "anaerobic conditions, 35°C, 48 h (confirmed 72 h)"}, "[4]": {"experiment": "Carboxyfluorescein leakage assay, LUV from bacterial lipids", "format": "biochemical, Bacillus subtilis", "details": "for Hill coefficient n, rapid initial phase of CF release: LPPO 0.8 mg/L, 60 μM phospholipid, 25°C", "experimental": "Bacterial phospholipids were extracted with hexane/2-propanol (3:2, v/v) mixture from B. subtilis 168 cell biomass (2000 ml of culture in LB medium) harvested in exponential phase by rapid filtration (Synpor no. 5 filter, Pragochema, Czech Republic). Phospholipids from human erythrocytes (0.5 ml, volunteer blood donor) were extracted with chloroform/2-propanol mixture (7:11, v/v) after hemolysis using distilled water. After evaporation of the solvent in vaccuo at 40°C, the phospholipids were dissolved in chloroform, filtered through glass fiber filters (Whatman) and concentrated under a stream of nitrogen. The lipid samples were stored at -80°C and used for liposome preparation.\nVesicles to be used in the carboxyfluorescein (CF) leakage assay were prepared by mixing the appropriate amount of lipids (1 mg/ml) with chloroform/methanol 2:1 (v/v). The solvent was subsequently evaporated under a nitrogen gas stream obtaining a thin film on the walls of a glass tube. The hydration procedure in a buffer containing 50 mM CF, 5 mM HEPES pH 7.4 lasted for 60 min at 40°C, interrupted by thorough vortexing to form multilamellar vesicles. Large unilamellar vesicles (LUV) were prepared by repeated extrusion of the multilamellar vesicles through 100 nm polycarbonate filters (Avestin) using the LiposoFast Basic apparatus (Avestin, Canada). Vesicles were separated from nonencapsulated dye by gel filtration on Sephadex G-50 using 100 mM NaCl, 0.5 mM Na2EDTA and 5 mM HEPES, pH 7.4 as elution buffer. Fractions with the highest content of the entrapped dye were pooled and dissolved in the same buffer to the final phospholipid concentration of 60 μM.\nThe release of vesicle contents after adding LPPO solutions was evaluated by the increased fluorescence intensity of CF released into the milieu which we express as the percentage of leakage. […] Maximum release of CF fluorescence (F max) was induced by lysing the vesicles with 0.1% (v/v) Triton X-100. Fluorescence intensity was monitored in time (excitation at 480 nm, emission at 515 nm) at 25°C using FluoroMax-3 (Jobin Yvon, Horriba) spectrofluorometer. The following equation was used to calculate the percent of CF leakage: % CF leakage = [(F–F 0)/(F max−F 0)] × 100, where F is the actual fluorescence intensity and F 0 is the fluorescence intensity before addition of the permeabilizing agent. Using Fityk software the time courses of liposome lysis were fitted by a function: α(1-exp(-t/τ))^n, where t is the time, α is the amplitude of the effect, τ is the time constant of the effect, and n is Hill coefficient (S3 Fig)."}, "[5]": {"tested_on": "Salmonella typhimurium TA98 and TA100", "experiment": "Ames test for genotoxicity (Salmonella/microsome reversion assay, without S9)", "format": "cell-based", "details": "at relevant concentrations, without metabolic activation", "experimental": "The Salmonella/microsome reversion assay was conducted using the plate incorporation procedure described by Marona and Ames. The Ames test was performed utilizing two different bacterial strains of Salmonella typhimurium: strain TA98 for frame-shift mutations and strain TA100 for base-pair substitution. All strains were maintained and stored according to the standard procedures. All samples were tested without metabolic activation (S9) to detect direct mutagenic compounds. The test was performed with plate incorporation method in duplicate at the increasing concentrations. The plates were incubated at 37°C for 72 h in the dark. The number of his+ revertants was estimated with the counter. Results were expressed as mutation ratios (Φ) calculated as the number of colonies on test plates/number of colonies on solvent control plates. A compound is considered mutagenic when Φ is more than 2 and a dose–response effect is evident."}, "Streptococcus agalactiae": {"tested_on": "Streptococcus agalactiae", "experiment": "Induction of resistance by repeated passages, MIC after each step", "format": "cell-based"}, "[6]": {"tested_on": "Enterococcus faecalis CCM 4224", "experiment": "MIC, standard microdilution method", "details": "CCM4224, 24 h"}, "[7]": {"tested_on": "Staphylococcus aureus CCM 4223", "experiment": "MIC, standard microdilution method", "details": "CCM4223, 24 h"}, "Bacillus subtilis": {"tested_on": "Bacillus subtilis", "experiment": "MIC, standard microdilution method", "details": "Bacillus subtilis"}, "[8]": {"details": "read-out: MIC after induction step, step 1"}, "[9]": {"details": "read-out: MIC after induction step, step 2"}, "[10]": {"details": "read-out: MIC after induction step, step 3"}, "[11]": {"details": "read-out: MIC after induction step, step 4"}, "[12]": {"details": "read-out: MIC after induction step, step 5"}, "[13]": {"details": "read-out: MIC after induction step, step 6"}, "[14]": {"details": "read-out: MIC after induction step, step 7"}, "[15]": {"details": "read-out: MIC after induction step, step 8"}, "[16]": {"details": "read-out: MIC after induction step, step 9"}, "[17]": {"details": "read-out: MIC after induction step, step 10"}, "[18]": {"details": "read-out: MIC after induction step, step 11"}, "[19]": {"details": "read-out: MIC after induction step, step 12"}, "[20]": {"details": "read-out: MIC after induction step, step 13"}, "[21]": {"details": "read-out: MIC after induction step, step 14"}}, "note": "Like-named read-outs stand apart in the source and are kept apart here."}
{"smiles": "CCCCCCCCCCCCCCCCOP(=O)(CCN1C[C@@H](O)[C@H](O)C1)OC[C@H]1O[C@@H](n2ccc(=O)[nH]c2=O)[C@H](O)[C@@H]1O", "note": "(stereo partly drawn) [DR5026]", "values": [{"measurement": "MIC", "setting": "[1]", "value": 12.5, "unit": "µg/mL"}, {"measurement": "MIC", "setting": "[2]", "value": 12.5, "unit": "µg/mL"}, {"measurement": "MIC", "setting": "[3]", "value": 1.56, "unit": "µg/mL"}, {"measurement": "Hill coefficient n, rapid initial phase of CF release", "setting": "[4]", "value": "0.5 ± 0.2"}, {"measurement": "fit Hill coefficient n, initial phase f(x)", "setting": "[4]; S3 Fig data set", "value": 0.6}, {"measurement": "fit Hill coefficient n, latter phase g(x)", "setting": "[4]; S3 Fig data set", "value": 3.1}, {"measurement": "fit amplitude α, initial phase f(x) of liposome lysis", "setting": "[4]; S3 Fig data set", "value": 29.7}, {"measurement": "fit amplitude α, latter phase g(x) of liposome lysis", "setting": "[4]; S3 Fig data set", "value": 76.4}, {"measurement": "fit time constant τ, initial phase f(x)", "setting": "[4]; S3 Fig data set", "value": 175.5, "unit": "s"}, {"measurement": "fit time constant τ, latter phase g(x)", "setting": "[4]; S3 Fig data set", "value": 28.2, "unit": "s"}, {"measurement": "genotoxicity (mutagenic potential)", "setting": "[5]", "value": "Neither of the two compounds was found to be genotoxic"}, {"measurement": "MIC", "setting": "Streptococcus agalactiae; [8]", "value": 3.1, "unit": "µg/mL"}, {"measurement": "MIC", "setting": "Streptococcus agalactiae; [9]", "value": 3.1, "unit": "µg/mL"}, {"measurement": "MIC", "setting": "Streptococcus agalactiae; [10]", "value": 3.1, "unit": "µg/mL"}, {"measurement": "MIC", "setting": "Streptococcus agalactiae; [11]", "value": 3.1, "unit": "µg/mL"}, {"measurement": "MIC", "setting": "Streptococcus agalactiae; [12]", "value": 3.1, "unit": "µg/mL"}, {"measurement": "MIC", "setting": "Streptococcus agalactiae; [13]", "value": 3.1, "unit": "µg/mL"}, {"measurement": "MIC", "setting": "Streptococcus agalactiae; [14]", "value": 6.2, "unit": "µg/mL"}, {"measurement": "MIC", "setting": "Streptococcus agalactiae; [15]", "value": 6.2, "unit": "µg/mL"}, {"measurement": "MIC", "setting": "Streptococcus agalactiae; [16]", "value": 3.1, "unit": "µg/mL"}, {"measurement": "MIC", "setting": "Streptococcus agalactiae; [17]", "value": 3.1, "unit": "µg/mL"}, {"measurement": "MIC", "setting": "Streptococcus agalactiae; [18]", "value": 3.1, "unit": "µg/mL"}, {"measurement": "MIC", "setting": "Streptococcus agalactiae; [19]", "value": 6.2, "unit": "µg/mL"}, {"measurement": "MIC", "setting": "Streptococcus agalactiae; [20]", "value": 6.2, "unit": "µg/mL"}, {"measurement": "MIC", "setting": "Streptococcus agalactiae; [21]", "value": 6.2, "unit": "µg/mL"}, {"measurement": "MIC", "setting": "[6]", "value": 3.12, "unit": "µg/mL"}, {"measurement": "MIC", "setting": "[7]", "value": 25, "unit": "µg/mL"}, {"measurement": "MIC", "setting": "Bacillus subtilis; 24 h", "value": 3.12, "unit": "µg/mL"}, {"measurement": "MIC", "setting": "Bacillus subtilis; read-out: MIC against wt B. subtilis, B. subtilis 168, as stated for the resistance selection experiment", "value": "~3", "unit": "µg/mL"}]}
{"smiles": "CCCCCCCCCCCCCCCCOCCCOP(=O)(CCN1C[C@@H](O)[C@H](O)C1)OC[C@H]1O[C@@H](n2ccc(=O)[nH]c2=O)[C@H](O)[C@@H]1O", "note": "(stereo partly drawn) [DR5047]", "values": [{"measurement": "MIC", "setting": "[1]", "value": 12.5, "unit": "µg/mL"}, {"measurement": "MIC", "setting": "[2]", "value": 6.25, "unit": "µg/mL"}, {"measurement": "MIC", "setting": "[3]", "value": 1.56, "unit": "µg/mL"}, {"measurement": "Hill coefficient n, rapid initial phase of CF release", "setting": "[4]", "value": "0.7 ± 0.1"}, {"measurement": "genotoxicity (mutagenic potential)", "setting": "[5]", "value": "Neither of the two compounds was found to be genotoxic"}, {"measurement": "MIC", "setting": "Streptococcus agalactiae; [8]", "value": 6.2, "unit": "µg/mL"}, {"measurement": "MIC", "setting": "Streptococcus agalactiae; [9]", "value": 6.2, "unit": "µg/mL"}, {"measurement": "MIC", "setting": "Streptococcus agalactiae; [10]", "value": 6.2, "unit": "µg/mL"}, {"measurement": "MIC", "setting": "Streptococcus agalactiae; [11]", "value": 6.2, "unit": "µg/mL"}, {"measurement": "MIC", "setting": "Streptococcus agalactiae; [12]", "value": 6.2, "unit": "µg/mL"}, {"measurement": "MIC", "setting": "Streptococcus agalactiae; [13]", "value": 6.2, "unit": "µg/mL"}, {"measurement": "MIC", "setting": "Streptococcus agalactiae; [14]", "value": 3.1, "unit": "µg/mL"}, {"measurement": "MIC", "setting": "Streptococcus agalactiae; [15]", "value": 6.2, "unit": "µg/mL"}, {"measurement": "MIC", "setting": "Streptococcus agalactiae; [16]", "value": 6.2, "unit": "µg/mL"}, {"measurement": "MIC", "setting": "Streptococcus agalactiae; [17]", "value": 6.2, "unit": "µg/mL"}, {"measurement": "MIC", "setting": "Streptococcus agalactiae; [18]", "value": 6.2, "unit": "µg/mL"}, {"measurement": "MIC", "setting": "Streptococcus agalactiae; [19]", "value": 6.2, "unit": "µg/mL"}, {"measurement": "MIC", "setting": "Streptococcus agalactiae; [20]", "value": 6.2, "unit": "µg/mL"}, {"measurement": "MIC", "setting": "Streptococcus agalactiae; [21]", "value": 6.2, "unit": "µg/mL"}, {"measurement": "MIC", "setting": "[6]", "value": 6.25, "unit": "µg/mL"}, {"measurement": "MIC", "setting": "[7]", "value": "> 200", "unit": "µg/mL"}, {"measurement": "MIC", "setting": "Bacillus subtilis; 24 h, 35°C, brain heart infusion broth", "value": 6.25, "unit": "µg/mL"}]}
